Holding throughout (assay type): functional, organism-based
For test [1], the system named is Influenza A virus. The test can be described thus: Antiviral activity against amantadine-resistant influenza A virus JX/312 (H3N2) infected in dog MDCK cells assessed as inhibition of virus induced cytopathic effect after 40 hrs by Cell-Titer-Glo assay. In general terms: Cytopathic effects are the visible damage that an infection or toxin causes in cultured cells.

The subject of test [2] is Influenza A virus. The test can be described thus: Antiviral activity against amantadine-resistant influenza A virus HN/1222 (H3N2) infected in dog MDCK cells assessed as inhibition of virus induced cytopathic effect after 40 hrs by Cell-Titer-Glo assay.
For test [3], the system named is Influenza A virus. The experiment in a line: Antiviral activity against oseltamivir-resistant influenza A virus LN/1109 (H1N1) infected in dog MDCK cells assessed as inhibition of virus induced cytopathic effect after 40 hrs by Cell-Titer-Glo assay.

Molecules are shown by their SMILES. A value given as a limit tells only on which side of the number the result lay.

On to `CCCc1c(Cl)c(O)cc(OC)c1Oc1c(Cl)c(O)c(Cl)c2c1C(=O)O[C@@H]2CC`, for which the EC50 amounted to 35.3 µM in the test with Influenza A virus [1], 38.5 µM with Influenza A virus [2] and 33400 nM in the test with Influenza A virus [3].
The corresponding values for `NC12CC3CC(CC(C3)C1)C2` [AMANTADINE] are 4.28 µM, more than 20.5 µM and more than 200000 nM.
The corresponding values for `CCOC(=O)C1=C[C@@H](OC(CC)CC)[C@H](NC(C)=O)[C@@H](N)C1` [OSELTAMIVIR] are 9.75 µM, more than 200 µM and 820 nM.
For `NC(=O)c1ncn([C@@H]2O[C@H](CO)[C@@H](O)[C@H]2O)n1` [RIBAVIRIN], in that order: 1.43 µM, 3.56 µM and 1050 nM.

As a reminder, the EC50 is the concentration needed to bring the measured effect to its halfway point.

The record behind these values is ChEMBL document CHEMBL3769343, “Spiromastilactones: A new class of influenza virus inhibitors from deep-sea fungus” (Eur J Med Chem, 2016).
